{
  "source": "patent US20240174638A1",
  "about": "“HETEROARYL DERIVATIVES AS APELIN RECEPTOR AGONISTS” (RESEARCH TRIANGLE INSTITUTE, priority 2021, published 2024)",
  "key": {"[1]": {"test_system": "BLEO-induced lung fibrosis in male C57BL/6 mice", "experiment": "Chronic (21-day) bleomycin-induced lung fibrosis model, prophylactic (Px) and therapeutic (Tx) arms", "assay_type": "in vivo, mouse", "conditions": "for 21-day survival rate: BLEO-instilled mice"}, "[2]": {"test_system": "bleomycin-induced pulmonary fibrosis in C57BL/6 mice", "experiment": "21-day non-GLP prophylactic bleomycin-induced pulmonary fibrosis study (oropharyngeal bleomycin; lung weight, BAL leukocytes)", "assay_type": "in vivo, mouse", "protocol": "The objective of this non-GLP study was to evaluate the prophylactic efficacy of EXAMPLE 22 in a 21-day model of bleomycin-induced pulmonary fibrosis in mice.\nMice were administered bleomycin (Catalog number C-61703-323-22, lot number D011495AA, Hospira) via oropharyngeal route to induce lung fibrosis.\nBleomycin-induced animals were treated twice daily with either of the three different doses of EXAMPLE 22 or pirfenidone starting from a day prior to disease induction and continued till study termination. Study animals were harvested on day 21 post-bleomycin administration. As an end point analysis, fibrosis symptoms such as body weight, absolute lung weight, lung weight normalized to body weight, and total leukocytes in BAL fluid were evaluated and compared with vehicle-treated mice.\nOne week prior to study initiation, 88 C57BL/6 mice, six to eight weeks of age were obtained from Simonsen Laboratories (Gilroy, CA). Animals were weighed prior to study initiation and 60 animals were randomized into groups such that mean body weights were similar for the different groups. Remaining animals with lower or higher body weight were not included into the study. Food and water was provided ad libitum, with a light/dark cycle of 12 hours."}, "in vitro": {"experiment": "in vitro", "conditions": "human"}, "[3]": {"test_system": "Salmonella typhimurium (TA98, TA100, TA1535 and TA1537)"}, "[4]": {"test_system": "Escherichia coli WP2 uvrA (pKM101)"}, "[5]": {"experiment": "Plasma and tissue pharmacokinetics following a single oral administration in male SD rat", "assay_type": "in vivo", "protocol": "Assay: Plasma and Tissue Pharmacokinetics of Example 22 Following a Single Oral Administration in Male SD Rat\nPreparation of PO (10 mg/kg, 10 mL/kg) Dosing\n1 mg/mL solution of 0.5% (w/v) CMC-Na, 0.1% (v/v) Tween 80 in Milli-Q Water.\nDissolved 29.68 mg of EXAMPLE 22 in 29.637 mL of 0.5% (w/v) CMC-Na, 0.1% (v/v). Tween 80 in Milli-Q Water with vortexing and sonicate to obtain a solution.\n(§1) The desired serial concentrations of working solutions were achieved by diluting stock solution of analyte with 50% acetonitrile in water solution. 5 μL of working solutions (10, 20, 50, 100, 500, 1000, 5000, 10000 ng/mL) were added to 50 μL of the blank SD Rat plasma to achieve calibration standards of 1˜1000 ng/mL (1, 2, 5, 10, 50, 100, 500, 1000 ng/mL) in a total volume of 55 μL. Four quality control samples at 2 ng/mL, 5 ng/mL, 50 ng/mL and 800 ng/mL for plasma were prepared independently of those used for the calibration curves. These QC samples were prepared on the day of analysis in the same way as calibration standards.\n55 μL standards, 55 μL QC samples and 55 μL unknown samples (50 μL plasma with 5 μL blank solution) were added to 200 μL of acetonitrile containing IS mixture for precipitating protein respectively. Then the samples were vortexed for 30 s. After centrifugation at 4 degree Celsius, 3900 rpm for 15 min, the supernatant was diluted 3 times with water. 20 μL of diluted supernatant was injected into the LC/MS/MS system for quantitative analysis.\nas §1, with “Rat tissue (lung, brain, kidney, muscle/skeletal, spleen, heart and skin) homogenous” for “Rat plasma”, “for tissue” for “for plasma”\n50 μL standards, 50 μL QC samples and 50 μL unknown samples (50 μL Tissue with 5 μL blank solution) were added to 200 μL of acetonitrile containing IS mixture for precipitating protein respectively. Then the samples were vortexed for 30 s. After centrifugation at 4 degree Celsius, 3900 rpm for 15 min, the supernatant was diluted 3 times with water. 50 μL of heart diluted supernatant and 20 μL of other tissue diluted supernatant was injected into the LC/MS/MS system for quantitative analysis."}, "Rat plasma protein": {"test_system": "Rat plasma protein", "conditions": "6 h, 1 μM"}, "[6]": {"conditions": "relative to Vehicle-treated BLEO-instilled controls"}, "[7]": {"conditions": "prophylactic treatment twice daily, 21-day"}},
  "note": "Where two headings read alike, the source gives them in different places.",
  "data": [
    {"smiles": "O=C(O)C[C@H](CCN1CCCC(F)(F)C1)NC(=O)c1cc(-c2ccccc2C(F)(F)F)n(-c2nccs2)n1", "note": "[Example 22, (3S)-5-(3,3-difluoropiperidin-1-yl)-3-{[1-(1,3-thiazol-2-yl)-5-[2-(trifluoromethyl)phenyl]-1H-pyrazol-3-yl]formamido}pentanoic acid]", "values": [
      {"measurement": "composite Tissue Collagen Fraction (TCF)", "setting": "[1]; 15 mpk/day Px EXAMPLE 22, Vehicle 5.58±0.34%", "value": "4.51±0.31", "unit": "%"},
      {"measurement": "21-day survival rate", "setting": "[1]; 15 mpk Px EXAMPLE 22 (p.o. BID)", "value": 91, "unit": "%"},
      {"measurement": "21-day survival rate", "setting": "[1]; 30 mpk Px EXAMPLE 22 (p.o. BID)", "value": 91, "unit": "%"},
      {"measurement": "21-day survival rate", "setting": "[1]; 60 mpk Px EXAMPLE 22 (p.o. BID)", "value": 92, "unit": "%"},
      {"measurement": "21-day survival rate", "setting": "[1]; Tx EXAMPLE 22 60 mpk (p.o. BID, from 5 days post-BLEO)", "value": 100, "unit": "%"},
      {"measurement": "ΔBW", "setting": "[1]; D0-D21, relative to Vehicle-treated BLEO-instilled controls", "value": "Neither EXAMPLE 22 nor PIRF affected"},
      {"measurement": "end-point readouts for fibrosis, overall", "setting": "[1]; overall conclusion of the study", "value": "positive impact on one or more end-point readouts"},
      {"measurement": "LW indexed to tibia length (LW:TL)", "setting": "[1]; [6]", "value": "Neither EXAMPLE 22 nor PIRF affected"},
      {"measurement": "endpoint lung OH-P content", "setting": "[1]; [6]", "value": "Neither EXAMPLE 22 nor PIRF affected"},
      {"measurement": "endpoint lung weight (LW)", "setting": "[1]; [6]", "value": "Neither EXAMPLE 22 nor PIRF affected"},
      {"measurement": "final BW", "setting": "[1]; [6]", "value": "Neither EXAMPLE 22 nor PIRF affected"},
      {"measurement": "serial BW", "setting": "[1]; [6]", "value": "Neither EXAMPLE 22 nor PIRF affected"},
      {"measurement": "effectiveness compared across doses", "setting": "[2]; 30 mg/kg", "value": "somewhat more effective"},
      {"measurement": "normalized lung weights", "setting": "[2]; normalized to body weight, prophylactic treatment twice daily, 21-day", "value": "reduced absolute and normalized lung weights"},
      {"measurement": "absolute lung weights", "setting": "[2]; [7]", "value": "reduced absolute and normalized lung weights"},
      {"measurement": "total number of leukocytes from bronchoalveolar lavage (BAL) fluid", "setting": "[2]; [7]", "value": "decreased total number of leukocytes"},
      {"measurement": "overt symptoms associated with bleomycin administration", "setting": "[2]; prophylactic treatment twice daily, 21-day non-GLP study", "value": "improved the overt symptoms"},
      {"measurement": "recovery at 6 h, 1 μM", "setting": "in vitro", "value": 74.4, "unit": "%"},
      {"measurement": "Cytotoxicity Code", "setting": "[3]", "value": "N"},
      {"measurement": "cytotoxicity to tester strains", "setting": "[3]", "value": "No cytotoxicity was observed"},
      {"measurement": "dose related increase of revertant colonies", "setting": "[3]", "value": "No dose related increase"},
      {"measurement": "precipitate in Mini-Ames assay", "setting": "[3]", "value": "No precipitate was observed"},
      {"measurement": "Cytotoxicity Code", "setting": "[4]", "value": "N"},
      {"measurement": "cytotoxicity to tester strain", "setting": "[4]", "value": "No cytotoxicity was observed"},
      {"measurement": "dose related increase of revertant colonies", "setting": "[4]", "value": "No dose related increase"},
      {"measurement": "increase in mean number of revertant colonies vs negative/solvent control", "setting": "[4]; Escherichia coli", "value": "< 2", "unit": "fold"},
      {"measurement": "4 h Conc., Brain (mean)", "setting": "[5]; 4 h post dose", "value": "BLQ"},
      {"measurement": "24 h Conc., Brain (mean)", "setting": "[5]; 24 h post dose", "value": "BLQ"},
      {"measurement": "24 h Conc., Heart (mean)", "setting": "[5]; 24 h post dose", "value": "BLQ"},
      {"measurement": "24 h Conc., Muscle (mean)", "setting": "[5]; 24 h post dose", "value": "BLQ"},
      {"measurement": "24 h Conc., Skin (mean)", "setting": "[5]; 24 h post dose", "value": "BLQ"},
      {"measurement": "24 h Conc., Spleen (mean)", "setting": "[5]; 24 h post dose", "value": "BLQ"},
      {"measurement": "concentration at 4 h", "setting": "[5]; heart, 10 mg/kg, 4 h post dose, read-out: 4 h Conc., Heart (mean)", "value": 28.8, "unit": "ng/g"},
      {"measurement": "Kp at 4 h", "setting": "[5]; heart, 10 mg/kg, 4 h post dose, read-out: 4 h Tissue:Plasma Ratio, Heart", "value": 0.28},
      {"measurement": "Kp at 24 h", "setting": "[5]; kidney (to plasma), 10 mg/kg, 24 h post dose, read-out: 24 h Tissue:Plasma Ratio, Kidney", "value": 3.47},
      {"measurement": "concentration at 4 h", "setting": "[5]; kidney, 10 mg/kg, 4 h post dose, read-out: 4 h Conc., Kidney (mean)", "value": 305, "unit": "ng/g"},
      {"measurement": "Kp at 4 h", "setting": "[5]; kidney, 10 mg/kg, 4 h post dose, read-out: 4 h Tissue:Plasma Ratio, Kidney", "value": 3.11},
      {"measurement": "concentration at 24 h", "setting": "[5]; kidney, 10 mg/kg, 24 h post dose, read-out: 24 h Conc., Kidney (mean)", "value": 22.9, "unit": "ng/g"},
      {"measurement": "concentration at 4 h", "setting": "[5]; lung, 10 mg/kg, 4 h post dose, read-out: 4 h Conc., Lung (mean)", "value": 40, "unit": "ng/g"},
      {"measurement": "Kp at 4 h", "setting": "[5]; lung, 10 mg/kg, 4 h post dose, read-out: 4 h Tissue:Plasma Ratio, Lung", "value": 0.39},
      {"measurement": "concentration at 4 h", "setting": "[5]; muscle (skeletal), 10 mg/kg, 4 h post dose, read-out: 4 h Conc., Muscle (mean)", "value": 7.3, "unit": "ng/g"},
      {"measurement": "Kp at 4 h", "setting": "[5]; muscle (skeletal), 10 mg/kg, 4 h post dose, read-out: 4 h Tissue:Plasma Ratio, Muscle", "value": 0.07},
      {"measurement": "concentration at 4 h", "setting": "[5]; plasma, 10 mg/kg, 4 h post dose, read-out: 4 h Conc., Plasma (mean)", "value": 102, "unit": "ng/mL"},
      {"measurement": "concentration at 24 h", "setting": "[5]; plasma, 10 mg/kg, 24 h post dose, read-out: 24 h Conc., Plasma (mean)", "value": 6.6, "unit": "ng/mL"},
      {"measurement": "concentration at 4 h", "setting": "[5]; skin, 10 mg/kg, 4 h post dose, read-out: 4 h Conc., Skin (mean)", "value": 19.3, "unit": "ng/g"},
      {"measurement": "Kp at 4 h", "setting": "[5]; skin, 10 mg/kg, 4 h post dose, read-out: 4 h Tissue:Plasma Ratio, Skin", "value": 0.19},
      {"measurement": "concentration at 4 h", "setting": "[5]; spleen, 10 mg/kg, 4 h post dose, read-out: 4 h Conc., Spleen (mean)", "value": 14, "unit": "ng/g"},
      {"measurement": "Kp at 4 h", "setting": "[5]; spleen, 10 mg/kg, 4 h post dose, read-out: 4 h Tissue:Plasma Ratio, Spleen", "value": 0.14},
      {"measurement": "% Protein Bound Rep 1", "setting": "Rat plasma protein", "value": 91.63, "unit": "%"},
      {"measurement": "% Protein Bound Rep 2", "setting": "Rat plasma protein", "value": 90.98, "unit": "%"},
      {"measurement": "% Protein Bound Rep 3", "setting": "Rat plasma protein", "value": 92.73, "unit": "%"},
      {"measurement": "Buffer Concentration Rep 1", "setting": "Rat plasma protein", "value": 49.3, "unit": "nM"},
      {"measurement": "Buffer Concentration Rep 2", "setting": "Rat plasma protein", "value": 62.3, "unit": "nM"},
      {"measurement": "Buffer Concentration Rep 3", "setting": "Rat plasma protein", "value": 53.6, "unit": "nM"},
      {"measurement": "Mean % Protein Bound", "setting": "Rat plasma protein", "value": 91.78, "unit": "%"},
      {"measurement": "Plasma Concentration Rep 1", "setting": "Rat plasma protein", "value": 588.6, "unit": "nM"},
      {"measurement": "Plasma Concentration Rep 2", "setting": "Rat plasma protein", "value": 690.6, "unit": "nM"},
      {"measurement": "Plasma Concentration Rep 3", "setting": "Rat plasma protein", "value": 737.4, "unit": "nM"}
    ]}
  ]
}
